pIC50: −log10 of the molar value.
Experiments:
EGFR (human) [1] = target: EGFR (human) (UniProt P00533); conditions: sk-mel-28
EGFR (human) [2] = target: EGFR (human) (UniProt P00533); conditions: h522
EGFR (human) [3] = target: EGFR (human) (UniProt P00533); conditions: ht-29
EGFR (human) [4] = target: EGFR (human) (UniProt P00533); conditions: delta
EGFR (human) [5] = target: EGFR (human) (UniProt P00533); conditions: hct-15
EGFR (human) [6] = target: EGFR (human) (UniProt P00533); conditions: ovcar-3
EGFR (human) [7] = target: EGFR (human) (UniProt P00533); conditions: lox-imvi
EGFR (human) [8] = target: EGFR (human) (UniProt P00533); conditions: sk-ov-3
EGFR (human) [9] = target: EGFR (human) (UniProt P00533); conditions: siha
EGFR (human) [10] = target: EGFR (human) (UniProt P00533); conditions: mcf-7
EGFR (human) [11] = target: EGFR (human) (UniProt P00533); conditions: m14
EGFR (human) [12] = target: EGFR (human) (UniProt P00533); conditions: hct 116
EGFR (human) [13] = target: EGFR (human) (UniProt P00533); conditions: uacc-257
EGFR (human) [14] = target: EGFR (human) (UniProt P00533); conditions: t-47d
EGFR (human) [15] = target: EGFR (human) (UniProt P00533); conditions: uacc62
EGFR (human) [16] = target: EGFR (human) (UniProt P00533); conditions: sf268
EGFR (human) [17] = target: EGFR (human) (UniProt P00533); conditions: ovcar-8
EGFR (human) [18] = target: EGFR (human) (UniProt P00533); conditions: sk-mel-2
EGFR (human) [19] = target: EGFR (human) (UniProt P00533); conditions: caski
EGFR (human) [20] = target: EGFR (human) (UniProt P00533); conditions: mcf7/adr-res
EGFR (human) [21] = target: EGFR (human) (UniProt P00533); conditions: colo-205
EGFR (human) [22] = target: EGFR (human) (UniProt P00533); conditions: ekvx
EGFR (human) [23] = target: EGFR (human) (UniProt P00533); conditions: ccrf-cem leukemia cell
EGFR (human) [24] = target: EGFR (human) (UniProt P00533); conditions: sk-mel-5
EGFR (human) [25] = target: EGFR (human) (UniProt P00533); conditions: ovcar-5
EGFR (human) [26] = target: EGFR (human) (UniProt P00533); conditions: malme-3m
EGFR (human) [27] = target: EGFR (human) (UniProt P00533); conditions: hn5
EGFR (human) [28] = target: EGFR (human) (UniProt P00533); conditions: hcc2998
EGFR (human) [29] = target: EGFR (human) (UniProt P00533); conditions: igr-ovi
EGFR (human) [30] = target: EGFR (human) (UniProt P00533); conditions: molt-4
EGFR (human) [31] = target: EGFR (human) (UniProt P00533); conditions: sf-539
EGFR (human) [32] = target: EGFR (human) (UniProt P00533); conditions: h226
EGFR (human) [33] = target: EGFR (human) (UniProt P00533); conditions: snb-19
EGFR (human) [34] = target: EGFR (human) (UniProt P00533); conditions: mda-mb-435
EGFR (human) [35] = target: EGFR (human) (UniProt P00533); conditions: uo-31
EGFR (human) [36] = target: EGFR (human) (UniProt P00533); conditions: snb-75
EGFR (human) [37] = target: EGFR (human) (UniProt P00533); conditions: h23
EGFR (human) [38] = target: EGFR (human) (UniProt P00533); conditions: km-12
EGFR (human) [39] = target: EGFR (human) (UniProt P00533); conditions: sn12c
EGFR (human) [40] = target: EGFR (human) (UniProt P00533); conditions: k562
EGFR (human) [41] = target: EGFR (human) (UniProt P00533); conditions: mda-n
EGFR (human) [42] = target: EGFR (human) (UniProt P00533); conditions: uo-31; remark: listed apart in the source
EGFR (human) [43] = target: EGFR (human) (UniProt P00533); conditions: ovcar-4
EGFR (human) [44] = target: EGFR (human) (UniProt P00533); conditions: rpmi8226
EGFR (human) [45] = target: EGFR (human) (UniProt P00533); conditions: h322m
EGFR (human) [46] = target: EGFR (human) (UniProt P00533); conditions: HN5
EGFR (human) [47] = target: EGFR (human) (UniProt P00533); conditions: sw 620
EGFR (human) [48] = target: EGFR (human) (UniProt P00533); conditions: bt-549
EGFR (human) [49] = target: EGFR (human) (UniProt P00533); conditions: hop-62
EGFR (human) [50] = target: EGFR (human) (UniProt P00533); conditions: sr

Sequence of EGFR (human) (P00533 whole entry, looked up): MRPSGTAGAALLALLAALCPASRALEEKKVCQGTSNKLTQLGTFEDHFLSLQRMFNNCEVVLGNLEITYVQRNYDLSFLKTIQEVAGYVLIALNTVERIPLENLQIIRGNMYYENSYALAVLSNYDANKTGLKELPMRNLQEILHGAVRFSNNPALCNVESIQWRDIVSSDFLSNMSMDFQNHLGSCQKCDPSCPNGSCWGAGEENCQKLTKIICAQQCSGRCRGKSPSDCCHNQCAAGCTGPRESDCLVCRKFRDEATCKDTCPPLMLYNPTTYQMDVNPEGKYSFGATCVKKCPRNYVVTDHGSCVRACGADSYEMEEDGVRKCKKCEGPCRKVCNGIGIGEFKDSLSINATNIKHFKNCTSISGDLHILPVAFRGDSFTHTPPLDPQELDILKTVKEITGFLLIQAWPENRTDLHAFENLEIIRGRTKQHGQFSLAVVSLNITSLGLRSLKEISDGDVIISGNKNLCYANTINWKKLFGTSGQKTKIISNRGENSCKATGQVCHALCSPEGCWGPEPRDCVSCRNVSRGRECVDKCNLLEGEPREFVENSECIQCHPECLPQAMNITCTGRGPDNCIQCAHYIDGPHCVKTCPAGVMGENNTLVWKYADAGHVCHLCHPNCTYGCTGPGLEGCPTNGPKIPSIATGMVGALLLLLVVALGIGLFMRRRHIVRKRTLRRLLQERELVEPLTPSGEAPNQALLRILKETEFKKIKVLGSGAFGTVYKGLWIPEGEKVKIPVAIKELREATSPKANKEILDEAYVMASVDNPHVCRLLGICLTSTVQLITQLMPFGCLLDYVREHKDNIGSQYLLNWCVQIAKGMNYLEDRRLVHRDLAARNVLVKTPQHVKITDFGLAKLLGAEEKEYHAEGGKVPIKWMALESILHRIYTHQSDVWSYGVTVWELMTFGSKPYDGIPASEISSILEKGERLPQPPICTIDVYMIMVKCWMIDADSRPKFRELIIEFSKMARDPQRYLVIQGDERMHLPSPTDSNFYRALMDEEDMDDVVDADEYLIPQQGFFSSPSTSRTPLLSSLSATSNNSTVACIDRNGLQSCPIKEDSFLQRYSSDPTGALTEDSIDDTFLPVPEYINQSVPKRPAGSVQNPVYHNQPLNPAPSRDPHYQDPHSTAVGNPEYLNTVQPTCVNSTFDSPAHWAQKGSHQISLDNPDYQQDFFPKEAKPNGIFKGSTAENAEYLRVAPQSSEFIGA

CCOC(=O)/C(C#N)=C/c1ccc([N+](=O)[O-])s1
Conditions	GI50 [µM]	pIC50
EGFR (human) [1]	2.95	–
EGFR (human) [2]	1.69	–
EGFR (human) [3]	2.04	–
EGFR (human) [4]	12	–
EGFR (human) [5]	2.19	–
EGFR (human) [6]	2.04	–
EGFR (human) [7]	1.86	–
EGFR (human) [8]	15.5	–
EGFR (human) [9]	–	5.34
EGFR (human) [10]	3.09	–
EGFR (human) [11]	1.74	–
EGFR (human) [12]	1.48	–
EGFR (human) [13]	2.09	–
EGFR (human) [14]	2.75	–
EGFR (human) [15]	1.35	–
EGFR (human) [16]	6.16	–
EGFR (human) [17]	1.99	–
EGFR (human) [18]	3.31	–
EGFR (human) [19]	–	5.16
EGFR (human) [20]	3.47	–
EGFR (human) [21]	1.62	–
EGFR (human) [22]	15.5	–
EGFR (human) [23]	1.55	–
EGFR (human) [24]	1.2	–
EGFR (human) [25]	1.95	–
EGFR (human) [26]	2.24	–
EGFR (human) [27]	–	5.27
EGFR (human) [28]	3.47	–
EGFR (human) [29]	1.66	–
EGFR (human) [30]	1.74	–
EGFR (human) [31]	5.75	–
EGFR (human) [32]	16.2	–
EGFR (human) [33]	14.8	–
EGFR (human) [34]	2.34	–
EGFR (human) [35]	10.7	–
EGFR (human) [36]	7.58	–
EGFR (human) [37]	2.63	–
EGFR (human) [38]	6.92	–
EGFR (human) [39]	5.75	–
EGFR (human) [40]	1.2	–
EGFR (human) [41]	2.19	–
EGFR (human) [42]	1.86	–
EGFR (human) [43]	1.7	–
EGFR (human) [44]	2.34	–
EGFR (human) [45]	17	–
EGFR (human) [46]	–	4.47
EGFR (human) [47]	1.48	–
EGFR (human) [48]	0.871	–
EGFR (human) [49]	14.8	–
EGFR (human) [50]	3.02	–

N#CC(C#N)=Cc1csc([N+](=O)[O-])c1
Conditions	GI50 [µM]	pIC50
EGFR (human) [1]	16.2	–
EGFR (human) [2]	15.1	–
EGFR (human) [3]	21.9	–
EGFR (human) [4]	1.99	–
EGFR (human) [5]	33.9	–
EGFR (human) [6]	21.9	–
EGFR (human) [7]	30.9	–
EGFR (human) [8]	59	–
EGFR (human) [9]	–	4.35
EGFR (human) [10]	41.7	–
EGFR (human) [11]	17.8	–
EGFR (human) [12]	16.2	–
EGFR (human) [13]	19	–
EGFR (human) [14]	22.9	–
EGFR (human) [15]	17.8	–
EGFR (human) [16]	38.9	–
EGFR (human) [17]	19.5	–
EGFR (human) [18]	26.9	–
EGFR (human) [19]	–	4.40
EGFR (human) [20]	37.1	–
EGFR (human) [21]	27.5	–
EGFR (human) [22]	> 100	–
EGFR (human) [23]	23.4	–
EGFR (human) [24]	15.8	–
EGFR (human) [25]	59	–
EGFR (human) [26]	33.9	–
EGFR (human) [27]	–	4.39
EGFR (human) [28]	26.9	–
EGFR (human) [29]	24	–
EGFR (human) [30]	23.4	–
EGFR (human) [31]	41.7	–
EGFR (human) [32]	> 100	–
EGFR (human) [33]	60.2	–
EGFR (human) [34]	20.9	–
EGFR (human) [35]	15.1	–
EGFR (human) [36]	25.1	–
EGFR (human) [37]	30.2	–
EGFR (human) [38]	35.5	–
EGFR (human) [39]	34.7	–
EGFR (human) [40]	27.5	–
EGFR (human) [41]	19.9	–
EGFR (human) [42]	17.8	–
EGFR (human) [43]	28.8	–
EGFR (human) [44]	31.6	–
EGFR (human) [45]	74.1	–
EGFR (human) [46]	–	4.64
EGFR (human) [47]	43.6	–
EGFR (human) [48]	27.5	–
EGFR (human) [49]	25.7	–
EGFR (human) [50]	30.2	–

N#CC(C#N)=C(N)/C(C#N)=C/c1ccc([N+](=O)[O-])s1
Conditions	GI50 [µM]	pIC50
EGFR (human) [1]	17	–
EGFR (human) [2]	11	–
EGFR (human) [3]	15.8	–
EGFR (human) [4]	4.07	–
EGFR (human) [5]	17.8	–
EGFR (human) [6]	15.5	–
EGFR (human) [7]	11.5	–
EGFR (human) [8]	17.8	–
EGFR (human) [9]	–	4.87
EGFR (human) [10]	10.5	–
EGFR (human) [11]	12	–
EGFR (human) [12]	3.39	–
EGFR (human) [13]	10.5	–
EGFR (human) [14]	6.91	–
EGFR (human) [15]	79.4	–
EGFR (human) [16]	22.4	–
EGFR (human) [17]	12.6	–
EGFR (human) [18]	19.5	–
EGFR (human) [19]	–	5.03
EGFR (human) [20]	21.4	–
EGFR (human) [21]	15.1	–
EGFR (human) [22]	19.5	–
EGFR (human) [23]	4.17	–
EGFR (human) [24]	7.58	–
EGFR (human) [25]	26.9	–
EGFR (human) [26]	22.9	–
EGFR (human) [27]	–	5.08
EGFR (human) [28]	15.8	–
EGFR (human) [29]	7.24	–
EGFR (human) [30]	5.89	–
EGFR (human) [31]	23.4	–
EGFR (human) [32]	17.8	–
EGFR (human) [33]	17.8	–
EGFR (human) [34]	12.3	–
EGFR (human) [35]	14.8	–
EGFR (human) [36]	14.8	–
EGFR (human) [37]	16.6	–
EGFR (human) [38]	18.2	–
EGFR (human) [39]	13.5	–
EGFR (human) [40]	3.89	–
EGFR (human) [41]	4.57	–
EGFR (human) [42]	18.2	–
EGFR (human) [43]	15.5	–
EGFR (human) [44]	5.01	–
EGFR (human) [45]	20.9	–
EGFR (human) [46]	–	4.91
EGFR (human) [47]	3.23	–
EGFR (human) [48]	12.9	–
EGFR (human) [49]	19.5	–
EGFR (human) [50]	12	–

— the Kinase Knowledgebase extract (Sharma et al. 2016)
